row,SMILES,melting point [°C]
1,"CCOC(=O)c1csc(/C=C/c2cn(-c3ccccc3)nc2OCc2ccc(OCc3nc(-c4ccco4)oc3C)c(OC)c2)n1 [Example 186, ethyl 2-((E)-2-{3-[(4-{[2-(2-furyl)-5-methyl-1,3-oxazol-4-yl]methoxy}-3-methoxybenzyl)oxy]-1-phenyl-1H-pyrazol-4-yl}ethenyl)-1,3-thiazole-4-carboxylate]",156 to 157
2,"COc1cc(COc2nn(-c3ccccc3)cc2/C=C/c2nc(C(=O)O)cs2)ccc1OCc1nc(-c2ccco2)oc1C [Example 187, 2-((E)-2-{3-[(4-{[2-(2-furyl)-5-methyl-1,3-oxazol-4-yl]methoxy}-3-methoxybenzyl)oxy]-1-phenyl-1H-pyrazol-4-yl}ethenyl)-1,3-thiazole-4-carboxylic acid]",170 to 172
3,"COc1cc(COc2nn(-c3ccccc3)cc2/C=C/c2nnc(C)[nH]2)ccc1OCc1nc(-c2ccco2)oc1C [Example 188, 3-((E)-2-{3-[(4-{[2-(2-furyl)-5-methyl-1,3-oxazol-4-yl]methoxy}-3-methoxybenzyl)oxy]-1-phenyl-1H-pyrazol-4-yl}ethenyl)-5-methyl-4H-1,2,4-triazole]",165 to 166
4,"COc1cc(COc2nn(-c3ccccc3)cc2/C=C/C(=O)NNC(C)=O)ccc1OCc1nc(-c2ccco2)oc1C [Example 189, (2E)-N′-acetyl-3-{3-[(4-{[2-(2-furyl)-5-methyl-1,3-oxazol-4-yl]methoxy}-3-methoxybenzyl)oxy]-1-phenyl-1H-pyrazol-4-yl}-2-propenohydrazide]",221 to 222
5,"CCc1nc(/C=C\c2cn(-c3ccccc3)nc2OCc2ccc(OCc3csc(N4CCCCC4)n3)c(OC)c2)cs1 [Example 193 (Z form), 1-[4-({4-[({4-[(Z)-2-(2-ethyl-1,3-thiazol-4-yl)ethenyl]-1-phenyl-1H-pyrazol-3-yl}oxy)methyl]-2-methoxyphenoxy}methyl)-1,3-thiazol-2-yl]piperidine]",93 to 94
6,"COc1cc(COc2nn(-c3ccccc3)cc2C=O)ccc1OCc1csc(N2CCCCC2)n1 [Example 196, 3-({3-methoxy-4-[(2-piperidin-1-yl-1,3-thiazol-4-yl)methoxy]benzyl}oxy)-1-phenyl-1H-pyrazole-4-carbaldehyde]",123 to 124
7,"COc1cc(COc2nn(-c3ccccc3)cc2C=O)ccc1OCc1csc(N2CCOCC2)n1 [Example 197, 3-({3-methoxy-4-[(2-morpholin-4-yl-1,3-thiazol-4-yl)methoxy]benzyl}oxy)-1-phenyl-1H-pyrazole-4-carbaldehyde]",128 to 129
8,"COc1cc(COc2nn(-c3ccccc3)cc2C=O)ccc1OCc1nc(N2CCCCC2)sc1C [Example 198, 3-({3-methoxy-4-[(5-methyl-2-piperidin-1-yl-1,3-thiazol-4-yl)methoxy]benzyl}oxy)-1-phenyl-1H-pyrazole-4-carbaldehyde]",180 to 181
9,"CCOC(=O)c1cn(Cc2cccnc2)nc1OCc1ccc(OCc2nc(-c3ccco3)oc2C)c(OC)c1 [Example 199, ethyl 3-[(4-{[2-(2-furyl)-5-methyl-1,3-oxazol-4-yl]methoxy}-3-methoxybenzyl)oxy]-1-(pyridin-3-ylmethyl)-1H-pyrazole-4-carboxylate]",131 to 132
10,"COc1cc(COc2nn(Cc3cccnc3)cc2CO)ccc1OCc1nc(-c2ccco2)oc1C [Example 200, [3-[(4-{[2-(2-furyl)-5-methyl-1,3-oxazol-4-yl]methoxy}-3-methoxybenzyl)oxy]-1-(pyridin-3-ylmethyl)-1H-pyrazol-4-yl]methanol]",90 to 91
11,"COC(=O)c1ccccc1-c1nc(COc2ccc(COc3nn(-c4ccccc4)cc3C=O)cc2OC)c(C)o1 [Example 207, methyl 2-{4-[(4-{[(4-formyl-1-phenyl-1H-pyrazol-3-yl)oxy]methyl}-2-methoxyphenoxy)methyl]-5-methyl-1,3-oxazol-2-yl}benzoate]",134 to 135
12,"COC(=O)c1cccc(-c2nc(COc3ccc(CON4CC(C=O)=CN4c4ccccc4)cc3OC)c(C)o2)c1 [Example 208, methyl 3-{4-[(4-{[(4-formyl-1-phenyl-1H-pyrazol-2-yl)oxy]methyl}-2-methoxyphenoxy)methyl]-5-methyl-1,3-oxazol-2-yl}benzoate]",164 to 165
13,"COC(=O)c1ccc(-c2nc(COc3ccc(COc4nn(-c5ccccc5)cc4C=O)cc3OC)c(C)o2)cc1 [Example 209, methyl 4-{4-[(4-{[(4-formyl-1-phenyl-1H-pyrazol-3-yl)oxy]methyl}-2-methoxyphenoxy)methyl]-5-methyl-1,3-oxazol-2-yl}benzoate]",190 to 191
14,"COc1cc(COc2nn(-c3ccccc3)cc2C=O)ccc1OCc1nc(-c2ccccc2)sc1C [Example 213, 3-({3-methoxy-4-[(5-methyl-2-phenyl-1,3-thiazol-4-yl)methoxy]benzyl}oxy)-1-phenyl-1H-pyrazole-4-carbaldehyde]",164 to 165
15,"COc1cc(COc2nn(-c3ccccc3)cc2C=O)ccc1OCc1coc(-c2ccco2)n1 [Example 218, 3-[(4-{[2-(2-furyl)-1,3-oxazol-4-yl]methoxy}-3-methoxybenzyl)oxy]-1-phenyl-1H-pyrazole-4-carbaldehyde]",162 to 163
16,"COc1cc(COc2nn(-c3ccccc3)cc2C=O)ccc1OCc1sc(-c2ccccc2)nc1C [Example 219, 3-({3-methoxy-4-[(4-methyl-2-phenyl-1,3-thiazol-5-yl)methoxy]benzyl}oxy)-1-phenyl-1H-pyrazole-4-carbaldehyde]",171 to 172
17,"COc1cc(COc2nn(-c3ccccc3)cc2C=O)ccc1OCc1cn(-c2ccccn2)nc1C [Example 220, 3-({3-methoxy-4-[(3-methyl-1-pyridin-2-yl-1H-pyrazol-4-yl)methoxy]benzyl}oxy)-1-phenyl-1H-pyrazole-4-carbaldehyde]",179 to 180
18,"COc1cc(COc2nn(-c3ccccc3)cc2C=O)ccc1OCc1nc(-c2ccccc2)cn1C [Example 221, 3-({3-methoxy-4-[(1-methyl-4-phenyl-1H-imidazol-2-yl)methoxy]benzyl}oxy)-1-phenyl-1H-pyrazole-4-carbaldehyde]",126 to 127
19,"CCc1nc(/C=C/c2cn(-c3ccccc3)nc2OCc2ccc(OCc3nc(-c4cccc(C(=O)OC)c4)oc3C)c(OC)c2)cs1 [Example 225 (E form), methyl 3-[4-({4-[({4-[(E)-2-(2-ethyl-1,3-thiazol-4-yl)ethenyl]-1-phenyl-1H-pyrazol-3-yl}oxy)methyl]-2-methoxyphenoxy}methyl)-5-methyl-1,3-oxazol-2-yl]benzoate]",132 to 133
20,"CCc1nc(/C=C\c2cn(-c3ccccc3)nc2OCc2ccc(OCc3nc(-c4cccc(C(=O)OC)c4)oc3C)c(OC)c2)cs1 [Example 225 (Z form), methyl 3-[4-({4-[({4-[(Z)-2-(2-ethyl-1,3-thiazol-4-yl)ethenyl]-1-phenyl-1H-pyrazol-3-yl}oxy)methyl]-2-methoxyphenoxy}methyl)-5-methyl-1,3-oxazol-2-yl]benzoate]",125 to 126
21,"COc1cc(COc2nn(-c3ccccc3)cc2C=O)ccc1OCc1nc(-c2cccnc2)oc1C [Example 227, 3-({3-methoxy-4-[(5-methyl-2-pyridin-3-yl-1,3-oxazol-4-yl)methoxy]benzyl}oxy)-1-phenyl-1H-pyrazole-4-carbaldehyde]",161 to 162
22,"CCc1nc(/C=C/c2cn(-c3ccccc3)nc2OCc2ccc(OCc3nc(N4CCOCC4)sc3C)c(OC)c2)cs1 [Example 232 (E form), 4-[4-({4-[({4-[(E)-2-(2-ethyl-1,3-thiazol-4-yl)ethenyl]-1-phenyl-1H-pyrazol-3-yl}oxy)methyl]-2-methoxyphenoxy}methyl)-5-methyl-1,3-thiazol-2-yl]morpholine]",76 to 78
23,"CCc1nc(/C=C\c2cn(-c3ccccc3)nc2OCc2ccc(OCc3nc(N4CCOCC4)sc3C)c(OC)c2)cs1 [Example 232 (Z form), 4-[4-({4-[({4-[(Z)-2-(2-ethyl-1,3-thiazol-4-yl)ethenyl]-1-phenyl-1H-pyrazol-3-yl}oxy)methyl]-2-methoxyphenoxy}methyl)-5-methyl-1,3-thiazol-2-yl]morpholine]",112 to 114
24,"Cc1oc(-c2ccccc2)nc1COc1ccc(C(=O)Nc2nn(-c3ccccc3)cc2C=O)cc1 [Example 233, N-(4-formyl-1-phenyl-1H-pyrazol-3-yl)-4-[(5-methyl-2-phenyl-1,3-oxazol-4-yl)methoxy]benzamide]",185 to 186
25,"COc1cc(COc2nn(-c3ccccc3)cc2C=O)ccc1OCc1nc(-c2cccc(O)c2)oc1C [Example 234, 3-[(4-{[2-(3-hydroxyphenyl)-5-methyl-1,3-oxazol-4-yl]methoxy}-3-methoxybenzyl)oxy]-1-phenyl-1H-pyrazole-4-carbaldehyde]",193 to 194
26,"COC(=O)COc1cccc(-c2nc(COc3ccc(COc4nn(-c5ccccc5)cc4C=O)cc3OC)c(C)o2)c1 [Example 235, methyl (3-{4-[(4-{[(4-formyl-1-phenyl-1H-pyrazol-3-yl)oxy]methyl}-2-methoxyphenoxy)methyl]-5-methyl-1,3-oxazol-2-yl}phenoxy)acetate]",107 to 109
27,"COC(=O)c1cccc(-c2nc(COc3ccc(COc4nn(-c5ccccc5)cc4C=O)cc3)c(C)o2)c1 [Example 237, methyl 3-{4-[(4-{[(4-formyl-1-phenyl-1H-pyrazol-3-yl)oxy]methyl}phenoxy)methyl]-5-methyl-1,3-oxazol-2-yl}benzoate]",161 to 162
28,"COc1cc(COc2nn(-c3ccccc3)cc2C=O)ccc1OCc1nc(N2CCOCC2)sc1C [Example 238, 3-({3-methoxy-4-[(5-methyl-2-morpholin-4-yl-1,3-thiazol-4-yl)methoxy]benzyl}oxy)-1-phenyl-1H-pyrazole-4-carbaldehyde]",149 to 150
29,"CCc1nc(/C=C/c2cn(-c3ccccc3)nc2OCc2ccc(OCc3nc(-c4ccc(C(=O)O)o4)oc3C)c(OC)c2)cs1 [Example 242, 5-[4-({4-[({4-[(E)-2-(2-ethyl-1,3-thiazol-4-yl)ethenyl]-1-phenyl-1H-pyrazol-3-yl}oxy)methyl]-2-methoxyphenoxy}methyl)-5-methyl-1,3-oxazol-2-yl]-2-furancarboxylic acid]",154 to 155
